What was measured:
[1] = Caco-2 Permeability Assay; format: in vitro ADME, human; conditions: human
From the text: The compounds of the invention may be tested for biological activity as MPO inhibitors by methods known to those skilled in the art. In addition, methods such as, for example, a Caco-2 assay, may be used to test the bioavailability of the compounds of the invention. A description of a Caco-2 permeability assay is as follows:
• The Caco-2 monolayer is widely used across the pharmaceutical industry as an in vitro model of the human small intestinal mucosa to predict the absorption of orally administered drugs.^1-4 • The Caco-2 cell model mimics processes such as transcellular transport, paracellular transport, and some aspects of efflux and active transport. • Readout: Papp (A→B), Papp (B→A), Efflux ratio, % Recovery • Controls: with and without Pgp inhibitor; Atenolol, Propanolol, Taxel-1
The Caco-2 cells are cultured to confluency, trypsinized and seeded onto a filter transwell insert at a density of ^˜32,000 cells/well in DMEM cell culture medium. Cells are grown in a humidified atmosphere of 5% CO2 at 37° C. Following an overnight attachment period (24 h after seeding), the cell medium is replaced with fresh medium in both the apical and basolateral compartments every other day. The cell monolayers are used for transport studies 21 days post seeding after measuring the TEER values ([…]). The apical sides and basolateral sides are washed consecutively with HBSS 2.5% (v/v), HEPES (pH 7.4) or HBSS 2.5% (v/v), HEPES 10% (v/v), and Fetal Bovine Serum (pH 7.4) at 37° C. in an incubator under an atmosphere of 5% CO2.
Donor working solution is prepared by dilution of DMSO stock of test article or positive control with transport media to 10 μM.
For A→B directional transport, the donor working solution (with test article or positive control, with or without Pgp inhibitor) is added to the apical (A) compartment and the transport media as receiver working solution is added to the basolateral (B) compartment. For B→A directional transport, the donor working solution (with positive control or test article, with or without Pgp inhibitor) is added to the basolateral (B) compartment and transport media as receiver working solution is added to the apical (A) compartment.
The cells are incubated in a humidified atmosphere of 5% CO2 at 37° C. for 90 minutes.
At the end of the incubation, samples are taken from both donor and receiver compartments and transferred into 96-well assay plates containing internal standard solution (IS) in each well. After centrifugation, the supernatant solutions are transferred to clean 96 well plates and analyzed by LC-MS/MS. The MS detection is performed using a Sciex API 4000 instrument. Each compound is analyzed by reversed phase HPLC.
The parameters Papp (apparent permeability) and efflux ratio are calculated as follows:
Papp=(dQ/dt)×(1/C0)×(1/A)
Efflux ratio=Papp[B→A]/Papp[A→B]
where dQ/dt is the permeability rate, C0 is the initial concentration in the donor compartment, and A is the surface area of the cell monolayer (0.33 cm^2). The Papp value is a rate measured in cm/s. Calculated Papp is ranked as low (<[…]), moderate (1-10×10^−6 cm/s), and high (>[…]).
Comparing the efflux ratios generated in the presence and absence of a Pgp inhibitor identifies whether the test article is a Pgp substrate.
Recovery is calculated as follows:
% Recovery=(Total compound mass in donor and receiver compartments at the end of the incubation/Initial compound mass in the donor compartment)×100.

Plasma Stability = format: in vitro ADME, human
How it was run: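 Parent compound quantified by LC-MS/MS after acetonitrile precipitation, reported as percent of control remaining (triplicate). Incubation: 1 hour, 37° C, fresh human plasma, compound at 1 μM.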

[2] = Stability in Simulated Gastric Fluid (SGF); format: in vitro ADME; set-up: key: % parent compound remaining relative to 0-minute sample
How it was run: (§1)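 Percent of parent remaining relative to time zero was measured by LC-MS/MS over 0–60 min at 37 °C, 150 rpm. Test compound was 2 μg/mL final in pepsin-containing SGF, pH 1.2, or pancreatin-containing SIF, pH 6.8. Degradation half-life was derived from the log-linear decay where enough points allowed.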

[3] = Stability in Simulated Intestinal Fluid (SIF); format: in vitro ADME; set-up: key: % parent compound remaining relative to 0-minute sample
How it was run: as §1

[4] = Caco-2, pH 7.4, Caco-2 monolayer
[5] = simulated gastric fluid, at 1 h
[6] = simulated intestinal fluid, at 1 h
[7] = % remaining at 1 h in human plasma
[8] = % remaining at 1 h in simulated gastric fluid
[9] = % remaining at 1 h in simulated intestinal fluid
[10] = Caco-2, pH 7.4, donor 10 μM, 90 minutes, 37° C., direction not given
[11] = % remaining at 1 h, human plasma, 1 μM, 37° C.
[12] = % remaining at 1 h, SGF with pepsin pH 1.2, 2 μg/mL, 37° C.
[13] = % remaining at 1 h, SIF with pancreatin pH 6.8, 2 μg/mL, 37° C.
[14] = bare number, no % and no time given

In the case of CC(C)OCCn1c(SCOC(=O)N(C)c2ccccc2Cl)nc(=O)c2[nH]ccc21 [Example 240], the Papp at 90 min, 10 µM [1, 4] is reported as 15.4 ×10⁻⁶ cm/s, the “human Plasma stability” value (Plasma Stability; human plasma, at 1 h) is reported as 83% remaining and the SGF [2, 5] is reported as 99% remaining. It also gave an SIF [3, 6] of 97% remaining.
With CC(C)COC(=O)n1ccc2c1c(=O)[nH]c(=S)n2CCOC(C)C [Example 232] the Papp at 90 min, 10 µM [1, 4] was 0.256 ×10⁻⁶ cm/s, the “human Plasma stability” value (Plasma Stability; human plasma, at 1 h) was 2% remaining and the SGF [2, 5] was 98% remaining. For the same molecule, the SIF [3, 6] was 3% remaining.
In the case of CC(C)C[C@H](N)C(=O)OCn1c(=O)c2c(ccn2COC(=O)[C@@H](N)CC(C)C)n(CCOC(C)C)c1=S.O=C(O)C(F)(F)F.O=C(O)C(F)(F)F [Example 322, bis(trifluoroacetic acid) [3-({[(2S)-2-amino-4-methylpentanoyl]oxy}methyl)-4-oxo-1-[2-(propan-2-yloxy)ethyl]-2-sulfanylidene-1H,2H,3H,4H,5H-pyrrolo[3,2-d]pyrimidin-5-yl]methyl (2S)-2-amino-4-methylpentanoate], the Papp at 90 min, 10 µM ([1]; Caco-2, pH 7.4) is reported as less than 0.106 ×10⁻⁶ cm/s, the “human Plasma stability” value (Plasma Stability; % remaining @ 1 h) is reported as 64%@ 1 h and the SGF ([2]; % remaining @ 1 h) is reported as 56%@ 1 h. For the same molecule, the SIF ([3]; % remaining @ 1 h) was 61%@ 1 h.
For CC(C)OCCn1c(SCOC(=O)C2CCN(C(=O)OC(C)(C)C)CC2)nc(=O)c2c1ccn2COC(=O)CCC(=O)OC(C)(C)C [Example 131], the Papp at 90 min, 10 µM [1, 4] was 6.58 ×10⁻⁶ cm/s, the “human Plasma stability” value (Plasma Stability; [7]) was 1% remaining and the SGF [2, 8] was 99% remaining. It also gave an SIF [3, 9] of 75% remaining.
In the case of CC(C)OCCn1c(SCOC(=O)CCCOC(=O)[C@@H](Cc2ccccc2)NC(=O)OC(C)(C)C)nc(=O)c2c1ccn2COC(=O)CCCOC(=O)[C@@H](Cc1ccccc1)NC(=O)OC(C)(C)C [Example 363, [(5-{[(4-{[(2R)-2-{[(tert-butoxy)carbonyl]amino}-3-phenylpropanoyl]oxy}butanoyl)oxy]methyl}-4-oxo-1-[2-(propan-2-yloxy)ethyl]-1H,4H,5H-pyrrolo[3,2-d]pyrimidin-2-yl)sulfanyl]methyl 4-{[(2R)-2-{[(tert-butoxy)carbonyl]amino}-3-phenylpropanoyl]oxy}butanoate], the Papp at 90 min, 10 µM [1, 4] is reported as 1.63 ×10⁻⁶ cm/s, the “human Plasma stability” value (Plasma Stability; human plasma, remaining at 1 h) is reported as 42% remaining and the SGF ([2]; simulated gastric fluid, remaining at 1 h) is reported as 97% remaining. It also gave an SIF ([3]; simulated intestinal fluid, remaining at 1 h) of 18% remaining.
In the case of C=CCCN(C)C(=O)OCSc1nc(=O)c2c(ccn2COC(=O)N(C)CCC=C)n1CCOC(C)C.O=C(O)C(F)(F)F [Example 180], the Papp at 90 min, 10 µM [1, 4] is reported as 25.9 ×10⁻⁶ cm/s, the “human Plasma stability” value (Plasma Stability; % @ 1 h (remaining) in human plasma) is reported as 99% @ 1 h and the SGF ([2]; % @ 1 h (remaining) in simulated gastric fluid) is reported as 99% @ 1 h. For the same molecule, the SIF ([3]; % @ 1 h (remaining) in simulated intestinal fluid) was 82% @ 1 h.
With CC(C)OCCn1c(=S)n(COC(=O)[C@H](Cc2ccccc2)NC(=O)OC(C)(C)C)c(=O)c2c1ccn2COC(=O)[C@H](Cc1ccccc1)NC(=O)OC(C)(C)C [Example 304, [3-({[(2S)-2-{[(tert-butoxy)carbonyl]amino}-3-phenylpropanoyl]oxy}methyl)-4-oxo-1-[2-(propan-2-yloxy)ethyl]-2-sulfanylidene-1H,2H,3H,4H,5H-pyrrolo[3,2-d]pyrimidin-5-yl]methyl (2S)-2-{[(tert-butoxy)carbonyl]amino}-3-phenylpropanoate] the Papp at 90 min, 10 µM ([1]; Caco-2, pH 7.4) was 0.34 ×10⁻⁶ cm/s, the “human Plasma stability” value (Plasma Stability; % remaining @ 1 h) was 99% @ 1 h and the SGF ([2]; % remaining @ 1 h) was 44% @ 1 h. The SIF ([3]; % remaining @ 1 h) was 67% @ 1 h.
In the case of CC(C)OCCn1c(SCOC(=O)N(C)c2ccc(F)cc2)nc(=O)c2[nH]ccc21 [Example 211, ({4-oxo-1-[2-(propan-2-yloxy)ethyl]-1H,4H,5H-pyrrolo[3,2-d]pyrimidin-2-yl}sulfanyl)methyl N-(4-fluorophenyl)-N-methylcarbamate], the Papp at 90 min, 10 µM [1, 10] is reported as 20 ×10⁻⁶ cm/s, the “human Plasma stability” value (Plasma Stability; [11]) is reported as 99% remaining and the SGF [2, 12] is reported as 100% remaining. It also gave an SIF [3, 13] of 96% remaining.
In the case of CCN(C(=O)OCSc1nc(=O)c2[nH]ccc2n1CCOC(C)C)C(C)C [Example 190], the Papp at 90 min, 10 µM ([1]; Caco-2, pH 7.4, Caco-2 monolayer, the 15th table) is reported as 13.8 ×10⁻⁶ cm/s, the “human Plasma stability” value (Plasma Stability; % remaining at 1 h in human plasma, the 15th table) is reported as 99% @ 1 h and the SGF ([2]; % remaining at 1 h in simulated gastric fluid, the 15th table) is reported as 99% @ 1 h. It also gave an SIF ([3]; % remaining at 1 h in simulated intestinal fluid, the 15th table) of 98% @ 1 h.
With CC(C)OCCn1c(=S)[nH]c(=O)c2c1ccn2COC(=O)CN [Example 284] the Papp at 90 min, 10 µM [1, 4] was 1.55 ×10⁻⁶ cm/s, the “human Plasma stability” value (Plasma Stability; human plasma, @ 1 h) was 0% @ 1 h and the SGF ([2]; simulated gastric fluid, @ 1 h) was 100% @ 1 h. For the same molecule, the SIF ([3]; simulated intestinal fluid, @ 1 h) was 6% @ 1 h.
For CC(C)OCCn1c(SC(C)OC(=O)N(C(C)C)C(C)C)nc(=O)c2[nH]ccc21 (centres unmarked) [Example 208, 1-({4-Oxo-1-[2-(propan-2-yloxy)ethyl]-1H,4H,5H-pyrrolo[3,2-d]pyrimidin-2-yl}sulfanyl)ethyl N,N-bis(propan-2-yl)carbamate], the Papp at 90 min, 10 µM [1, 10] was 18.3 ×10⁻⁶ cm/s, the “human Plasma stability” value (Plasma Stability; [11]) was 98% and the SGF [2, 12] was 1%. It also gave an SIF [3, 13] of 93%.
For CC(C)OCCn1c(=S)[nH]c(=O)c2c1ccn2COC(=O)C1CN(C(=O)OC(C)(C)C)C1 [Example 127], the Papp at 90 min, 10 µM [1, 4] was 7.79 ×10⁻⁶ cm/s, the “human Plasma stability” value (Plasma Stability; [7]) was 1% remaining and the SGF [2, 8] was 80% remaining. The SIF [3, 9] was 6% remaining.
For CC(C)OCCn1c(=S)[nH]c(=O)c2c1ccn2COC(=O)Oc1cccc(F)c1 [Example 234], the Papp at 90 min, 10 µM [1, 4] was less than 0.33 ×10⁻⁶ cm/s, the “human Plasma stability” value (Plasma Stability; human plasma, at 1 h) was 2% remaining and the SGF [2, 5] was 34% remaining. For the same molecule, the SIF [3, 6] was 8% remaining.
With CC(C)OCCn1c(=S)[nH]c(=O)c2c1ccn2COC(=O)CCNC(=O)[C@@H](NC(=O)OC(C)(C)C)C(C)C [Example 11, {4-oxo-1-[2-(propan-2-yloxy)-ethyl]-2-sulfanylidene-1H,2H,3H,4H,5H-pyrrolo[3,2-d]pyrimidin-5-yl}methyl3-[(2S)-2-{[(tert-butoxy)carbonyl]amino}-3-methylbutanamido]propanoate] the Papp at 90 min, 10 µM [1, 10] was 1.44 ×10⁻⁶ cm/s, the “human Plasma stability” value (Plasma Stability; [11]) was 99% and the SGF [2, 12] was 74%. The SIF [3, 13] was 69%.
With CC(C)OCCn1c(=S)[nH]c(=O)c2c1ccn2COC(=O)CCNC(=O)[C@@H](N)Cc1ccc(O)cc1.O=C(O)C(F)(F)F [Example 50] the Papp at 90 min, 10 µM [1, 4] was 0.215 ×10⁻⁶ cm/s, the “human Plasma stability” value (Plasma Stability; [7]) was 25% remaining and the SGF [2, 8] was 99% remaining. For the same molecule, the SIF [3, 9] was 75% remaining.
For COc1ccc(N(C)C(=O)OCSc2nc(=O)c3[nH]ccc3n2CCOC(C)C)cc1 [Example 241], the Papp at 90 min, 10 µM [1, 4] was 10.5 ×10⁻⁶ cm/s, the “human Plasma stability” value (Plasma Stability; human plasma, at 1 h) was 100% remaining and the SGF [2, 5] was 57% remaining. For the same molecule, the SIF [3, 6] was 97% remaining.
With COCCOCCC(=O)OCn1ccc2c1c(=O)[nH]c(=S)n2CCOC(C)C [Example 93, {4-oxo-1-[2-(propan-2-yloxy)ethyl]-2-sulfanylidene-1H,2H,3H,4H,5H-pyrrolo[3,2-d]pyrimidin-5-yl}methyl 3-(2-methoxyethoxy)propanoate] the Papp at 90 min, 10 µM [1, 10] was 16.8 ×10⁻⁶ cm/s, the “human Plasma stability” value (Plasma Stability; [11]) was 0% remaining and the SGF [2, 14] was 99. For the same molecule, the SIF [3, 14] was 38.
